Measurements as given in patent US20230257715A1, “COMPOSITIONS AND METHODS FOR REGULATING ENTEROENDOCRINE CELL DIFFERENTIATION AND USES THEREOF” (The Children's Medical Center Corporation, priority 2020, published 2023).
“Also recorded” adds a separate entry of the source.

What was measured:
human duodenal enteroids [1] = assay: Single cell RNA sequencing of enteroids (cell type proportions, module score, scVelo trajectory); type: cell-based
Experimental: To better assess the transcriptomic distinctions between cells from the various culture conditions, single cell RNA sequencing (scRNA-seq) on the 10× platform combined with sample hashing was utilized, allowing the assessment of the reproducibility of the findings from distinct donors. Enteroids from three individuals were grown in G2D12, RSP or AS, for a total of nine samples. After the 14-day protocol, enteroids were isolated and processed into a single-cell suspension and their condition and patient source were marked using Hashtag antibodies prior to pooling the samples together (Stoeckius, M. et al. Genome Biol 19, 224, doi:10.1186/s13059-018-1603-1 (2018).)^47. After labeling, cells were processed, and single-cell transcriptomes were generated.
Enteroids were incubated in Cell Recovery solution for 40-60 minutes at 4° C. to remove the Matrigel® and then centrifuged at 500×g for 5 minutes at 4° C. To achieve single cell suspension, organoids were then incubated in 500 μL of TrypLE™ Express at 37° C. for 30 minutes and broken up by repeated pipetting using a bent P1000 pipette tip. Each sample was then diluted in 800 μL of 20% FBS in Advanced DMEM/F12, filtered through 37 μm mesh, and then centrifuged at 300×g for 10 minutes at 4° C. Dead cells were then removed using magnetic-activated cell sorting (MACS) separation following the manufacturer's protocol. Briefly, each sample was resuspended in 100 μL Dead Cell Removal MicroBeads (Miltenyi Biotec) and incubated at room temperature for 15 minutes. 400 μL of 1×Binding Buffer was then added to each sample, after which the samples were applied to prepared MACS columns placed in a MACS Separator. Flow-through containing live cells was collected. This was followed by washing the columns four times with 1× Binding Buffer, which were combined with the initial flow-through. These samples were then centrifuged at 800×g for 5 minutes at 4° C.
Single cells isolated after dead cell removal (see, Example 18) were labeled prior to sequencing with Totalseq™-B hashtag antibodies (Biolegend), targeted against CD298 and β2-microglobulin, per the manufacturer's protocol^47. Briefly, each of the nine samples (three separate differentiation conditions in three enteroid lines) were resuspended in 50 μL of Cell Staining Buffer (Biolegend) and blocked with […] of Human TruStain FcX^TM blocking reagent (Biolegend) for 10 minutes at 4° C. The supernatant was then removed, and each sample resuspended in 50 μL of Cell Staining Buffer containing […] of a unique Totalseq™-B hashtag antibody. Samples were incubated for 30 minutes at 4° C. and then washed three times in 3.5 mL of Cell Staining Buffer. The samples were then filtered through a 37 μm mesh, resuspended in 2% BSA in PBS at a concentration of 1500 cells/μL, and then pooled together. Of note, prior to the scRNA-seq experiment, antibody binding was verified using fluorophore-conjugated antibodies with the same binding specificity.
A total of 180,000 cells as one pool were inputted across four channels, with a recovery rate of approximately 30,000 cells across all four channels. RNA libraries were prepared from single cells by the Single Cell Core at Harvard Medical School, Boston, Mass., using the 10× Chromium Single Cell 3′ Library Chip (V3.1) with dual indexed barcodes. Briefly, single cells were partitioned into Gel Beads in Emulsion (GEMs) by the Chromium Controller. […]

human duodenal enteroids [2] = assay: qPCR analysis of enteroendocrine and lineage markers in enteroids; type: cell-based
Excerpt: For differentiation, enteroids were passaged and grown in GM for two days, to allow for ISC expansion, after which the organoids were transitioned to tissue-specific differentiation media (DM) with additional small molecules added as described (TABLE 1A and TABLE 1B). Media was changed every two days, with Tubastatin A being removed after the second day of differentiation. Enteroids and rectoids were taken for analysis after 14 days.
Total RNA was purified from individual wells using TRI®Reagent (Sigma) and the Direct-zol™ RNA kit (Zymo Research), following the manufacturer's protocol. RNA concentration was determined using a NanoDrop™ 1000 spectrophotometer (Life Technologies). RNA was treated with DNAse (Promega) and reverse transcribed using the High-Capacity cDNA Reverse Transcription Kit (Life Technologies). Gene expression analysis was then performed by Real Time quantitative PCR (qPCR) using a QuantStudio 6 Flex thermocycler (Life Technologies). Taqman primers from Life Technologies (TABLE 3) were used. 18S transcripts were used as the internal control and data were expressed using the 2^−ddCt method with Ct limit of 40. Fold change, unless otherwise stated, was compared to total RNA derived from adult whole mucosal tissue biopsies.

[3] = three enteroid lines, 14-day protocol

Compound: CCn1cc(C(=O)O)c(=O)c2c(N)c(F)c(NC3CCCCC3)cc21 [AS, AS1842856]
- EE Cell Gene Module Score, effect size between culture conditions (Cohen's d) (human duodenal enteroids [1]; reference gene set from mouse EE cells): larger effect size than RSP
- proportion of EE cells (scRNA-seq) (human duodenal enteroids [1]; [3]): 18%
- proportion of enterocytes (scRNA-seq) (human duodenal enteroids [1]; [3]): 2.5%
- proportion of goblet cells (scRNA-seq) (human duodenal enteroids [1]; [3]): 1.5%
- proportion of stem cells (scRNA-seq) (human duodenal enteroids [1]; [3]): 42%
- differentiation trajectory (scVelo RNA velocity) (human duodenal enteroids [1]; vector field on UMAP): the majority of vectors moving towards the goblet cell cluster and then into the EE cluster
- expression of the enterocyte marker ALP1 (qPCR) (human duodenal enteroids [2]; compared to G14 and G2D12): reduced expression
- other intestinal lineage marker mRNA expression (qPCR) (human duodenal enteroids [2]; compared to G14 and G2D12): increased expression of other secretory and ISC markers, including ATOH1, MUC2, LYZ, and LGR5
- EE marker mRNA expression (qPCR) (human duodenal enteroids [2]; compared to G14 and G2D12, referenced to whole mucosa, normalized to 18S): induced similar mRNA expression trends as Rim and SP (RSP); also recorded: upregulation of multiple EE markers (CHGA, PAX4, PDX1, NEUROD1, NEUROG3, SST and GIP), many to levels approximating whole mucosa
- EE marker mRNA expression, direct comparison of protocols (qPCR) (human duodenal enteroids [2]; compared to RSP / AS alone, FIG. 5.1A and 5A): higher expression of CHGA, NEUROD1, NEUROG3, and SST
- MUC2, ALP1 and LGR5 mRNA expression compared to those that received RSP alone (human duodenal enteroids [2]; qPCR, FIG. 7.1A): decreased expression of MUC2 and ALP1 and increased expression of LGR5
